Values after ≈ are worked out from the molar mass of the structure shown. Where two headings read alike, the source gives them in different places.
How the values were obtained:
[1] = system: Haemophilus influenzae 76; test: MIC, standard agar-dilution assay; format: cell-based; details: Haemophilus influenzae, 76
Method: (§1) The MIC's in Table II were determined by standard agar-dilution assays. The MIC's in Table III were obtained using a conventional broth-dilution microtiter test.

[2] = system: Haemophilus influenzae C.L.; test: MIC, standard agar-dilution assay; format: cell-based
Method: as §1

[3] = system: Staphylococcus aureus X400; test: MIC, standard agar-dilution assay; format: cell-based
Method: as §1

[4] = system: Staphylococcus epidermidis EPI2; test: MIC, standard agar-dilution assay; format: cell-based
Method: as §1

[5] = system: Staphylococcus epidermidis EPI1; test: microbe, parasite or virus in culture; format: cell-based; details: Staphylococcus epidermidis, EPI1
Method: as §1

[6] = system: Staphylococcus aureus S13E; test: microbe, parasite or virus in culture; format: cell-based
Method: as §1

Pasteurella multocida = test: Pasteurella infection in one-day old chicks; format: in vivo; details: subcutaneous, 30 mg/kg × 2, 1 and 4 hours post-challenge
Method: Certain of the formula 1 compounds of this invention have also shown in vivo activity against infections induced by gram-negative bacteria. Table V summarizes the results of tests in which illustrative compounds were evaluated against a Pasteurella infection in one-day old chicks. The compounds were administered parenterally after challenge of the chicks with Pasteurella multocida (0.1 ml of a 10^-4 dilution of a twenty-hour tryptose broth culture of an avian P. multocida given subcutaneously). In these tests, unless indicated otherwise, all non-medicated infected chicks died within 24 hours of Pasteurella challenge. In the tests summarized in Table V, the compounds were administered by subcutaneous injection at a dosage of 30 mg/kg, 1 and 4 hours post-challenge of the chicks with P. multocida.

Escherichia coli TEM = test: MIC, standard agar-dilution assay; format: cell-based
Outline: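 Antibacterial activity toward the gram-negative organism Escherichia coli was assessed by conventional agar dilution. The MIC, reported in ug/mL, is the minimum compound concentration on agar that prevents growth.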

[7] = system: Streptococcus pyogenes 9960; test: MIC, standard agar-dilution assay; format: cell-based
Method: (§2) Certain of the derivatives are active against some gram-negative bacteria, such as Pasteurella species. The MIC's in Table II were determined by standard agar-dilution assays. The MIC's in Table III were obtained using a conventional broth-dilution microtiter test.

[8] = system: Klebsiella pneumoniae X26; test: MIC, standard agar-dilution assay; format: cell-based
Outline: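 Two formats were used. Broth dilution in microtiter plates served for Pasteurella and Mycoplasma, while agar dilution served for Klebsiella.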

[9] = system: Klebsiella pneumoniae KAE; test: MIC, standard agar-dilution assay; format: cell-based
Outline: (§3)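 Agar plates containing graded compound levels gave the Klebsiella value. Graded broth dilutions in microtiter plates gave the Pasteurella and Mycoplasma values.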

[10] = system: Streptococcus Group D X66; test: MIC, standard agar-dilution assay; format: cell-based
Method: as §2

[11] = system: Staphylococcus aureus X1.1; test: MIC, standard agar-dilution assay; format: cell-based; details: Staphylococcus aureus, X1.1
Outline: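 A standard agar-dilution assay was used to test compounds against the Staphylococcus aureus isolate X1.1. Bacterial growth on agar with different compound concentrations was assessed, and the minimum inhibitory concentration was recorded in ug/mL.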

[12] = system: Streptococcus pyogenes C203; test: MIC, standard agar-dilution assay; format: cell-based
Method: as §2

Escherichia coli EC14 = test: MIC, standard agar-dilution assay; format: cell-based
Method: as §2

[13] = system: Streptococcus pneumoniae Park I; test: MIC, standard agar-dilution assay; format: cell-based
Method: as §2

[14] = system: Staphylococcus aureus V41; test: MIC, standard agar-dilution assay; format: cell-based
Method: as §2

[15] = system: Streptococcus pyogenes C203; test: Protection of mice experimentally infected with S. pyogenes C203; format: in vivo
Method: Some of the derivatives of this invention have shown in vivo antimicrobial activity against experimentally-induced infections in laboratory animals. When two doses of test compound were administered to mice experimentally infected with S. pyogenes C203, the activity observed was measured as an ED50 value [effective dose in mg/kg to protect 50% of the test animals: see Warren Wick, et al., J. Bacteriol. 81, 233-235 (1961)].

[16] = system: Mycoplasma gallisepticum 34159; test: MIC, conventional broth-dilution microtiter test; format: cell-based; details: Mycoplasmoides gallisepticum
Outline: as §3

[17] = system: Pasteurella multocida 68C; test: MIC, conventional broth-dilution microtiter test; format: cell-based; details: Pasteurella multocida, 68C
Outline: as §3

Mycoplasma hyorhinis = test: MIC, conventional broth-dilution microtiter test; format: cell-based
Outline: as §3

Mycoplasma gallisepticum = test: MIC, conventional broth-dilution microtiter test; format: cell-based; details: Mycoplasmoides gallisepticum
Outline: as §3

[18] = system: Pasteurella multocida 17E; test: MIC, conventional broth-dilution microtiter test; format: cell-based
Outline: as §3

[19] = system: Pasteurella hemolytica 23C; test: MIC, conventional broth-dilution microtiter test; format: cell-based
Outline: as §3

[20] = system: Pasteurella multocida 22A; test: MIC, conventional broth-dilution microtiter test; format: cell-based; details: Pasteurella multocida, 22A
Outline: as §3

[21] = system: Pasteurella hemolytica 41D; test: MIC, conventional broth-dilution microtiter test; format: cell-based
Outline: as §3

Staphylococcus aureus = test: MIC, conventional broth-dilution microtiter test; format: cell-based
Method: as §2

Mycoplasma synoviae = test: MIC, conventional broth-dilution microtiter test; format: cell-based; details: Mycoplasmopsis synoviae
Outline: as §3

[22] = system: Mycoplasma gallisepticum 41313; test: MIC, conventional broth-dilution microtiter test; format: cell-based; details: Mycoplasmoides gallisepticum
Outline: as §3

Streptococcus sp. 80 = test: MIC, conventional broth-dilution microtiter test; format: cell-based
Method: as §2

[23] = system: Pasteurella multocida 40G; test: MIC, conventional broth-dilution microtiter test; format: cell-based; details: Pasteurella multocida, 40G
Outline: as §3

[24] = system: Pasteurella multocida 60A; test: MIC, conventional broth-dilution microtiter test; format: cell-based; details: Pasteurella multocida, 60A
Outline: as §3

[25] = system: Pasteurella hemolytica 22C; test: MIC, conventional broth-dilution microtiter test; format: cell-based
Outline: as §3

Compound: CCC1OC(=O)CC(O)C(C)C(OC2OC(C)C(O)C(N(C)C)C2O)C(CCOC(=O)Cc2ccccc2)CC(C)C(=O)C=CC(C)=CC1CO (centres unmarked) [Compound 1, 20-O-Phenylacetyl-20-dihydro-OMT]
- MIC [1]: 16 µg/mL (≈ 22.3 µM)
- MIC ([2]; Haemophilus influenzae): 16 µg/mL (≈ 22.3 µM)
- MIC ([3]; Staphylococcus aureus, X400): 2 µg/mL (≈ 2.79 µM)
- MIC ([4]; Staphylococcus epidermidis, EPI2): 1 µg/mL (≈ 1.39 µM)
- MIC [5]: 0.5 µg/mL (≈ 0.696 µM)
- MIC [6]: 1 µg/mL (≈ 1.39 µM)
- Number of Deaths/Number Treated (Pasteurella multocida): 9/10
- MIC (Escherichia coli TEM; Escherichia coli): 16 µg/mL (≈ 22.3 µM)
- MIC [7]; 9960: 2 µg/mL (≈ 2.79 µM)
- MIC ([8]; Klebsiella pneumoniae, X26): 4 µg/mL (≈ 5.57 µM)
- MIC ([9]; Klebsiella pneumoniae): > 128 µg/mL
- MIC [10]: 2 µg/mL (≈ 2.79 µM)
- MIC [11]: 1 µg/mL (≈ 1.39 µM)
- MIC ([12]; Streptococcus pyogenes, C203): 1 µg/mL (≈ 1.39 µM)
- MIC (Escherichia coli EC14; Escherichia coli, EC14): 64 µg/mL (≈ 89.1 µM)
- MIC ([13]; Streptococcus pneumoniae): 0.5 µg/mL (≈ 0.696 µM)
- MIC ([14]; Staphylococcus aureus, V41): 1 µg/mL (≈ 1.39 µM)
- ED50 ([15]; C203, po, read-out: ED50 Oral): > 100 mg/kg
- ED50 ([15]; C203, sc, read-out: ED50 Subcutaneous): > 30 mg/kg
- MIC [16]; 34159: 6.25 µg/mL (≈ 8.71 µM)
- MIC [17]: 6.25 µg/mL (≈ 8.71 µM)
- MIC (Mycoplasma hyorhinis; Mycoplasma): > 50 µg/mL
- MIC (Mycoplasma gallisepticum): 3.12 µg/mL (≈ 4.35 µM)
- MIC ([18]; Pasteurella multocida, 17E): 12.5 µg/mL (≈ 17.4 µM)
- MIC ([19]; Pasteurella, 23C): 12.5 µg/mL (≈ 17.4 µM)
- MIC [20]: 25 µg/mL (≈ 34.8 µM)
- MIC ([21]; Pasteurella, 41D): 12.5 µg/mL (≈ 17.4 µM)
- MIC (Staphylococcus aureus): 3.12 µg/mL (≈ 4.35 µM)
- MIC (Mycoplasma synoviae): 50 µg/mL (≈ 69.6 µM)
- MIC [22]; 41313: 50 µg/mL (≈ 69.6 µM)
- MIC (Streptococcus sp. 80; Streptococcus, SP.80): 3.12 µg/mL (≈ 4.35 µM)
- MIC [23]: 25 µg/mL (≈ 34.8 µM)
- MIC [24]: 25 µg/mL (≈ 34.8 µM)
- MIC ([25]; Pasteurella, 22C): 25 µg/mL (≈ 34.8 µM)

Compound: CCC1CC(C)C(=O)C=CC(C)=CC(CN2CCC(O)CC2)C(CC)OC(=O)CC(O)C(C)C1OC1OC(C)C(O)C(N(C)C)C1O (centres unmarked) [Compound 45, 23-(4-Hydroxypiperidino)-20,23-dideoxy-20-dihydro-OMT]
- MIC [1]: 64 µg/mL (≈ 96 µM)
- MIC ([2]; agar-dilution, Haemophilus influenzae C.L., Ampicillin-sensitive strain, read-out: MIC): 32 µg/mL (≈ 48 µM)
- MIC ([3]; agar-dilution, Staphylococcus aureus X400, Methicillin-resistant strain, read-out: MIC): 32 µg/mL (≈ 48 µM)
- MIC ([4]; agar-dilution, Staphylococcus epidermidis EPI2, read-out: MIC): 2 µg/mL (≈ 3 µM)
- MIC [5]: 8 µg/mL (≈ 12 µM)
- MIC [6]: 8 µg/mL (≈ 12 µM)
- Number of Deaths/Number Treated (Pasteurella multocida): 10/10
- MIC (Escherichia coli TEM; agar-dilution, Escherichia coli TEM, read-out: MIC): > 128 µg/mL
- MIC ([7]; agar-dilution, Streptococcus 9960, read-out: MIC): 128 µg/mL (≈ 192 µM)
- MIC ([8]; agar-dilution, Klebsiella pneumoniae X26, read-out: MIC): 16 µg/mL (≈ 24 µM)
- MIC ([9]; agar-dilution, Klebsiella pneumoniae KAE, read-out: MIC): > 128 µg/mL
- MIC [10]: 64 µg/mL (≈ 96 µM)
- MIC [11]: 8 µg/mL (≈ 12 µM)
- MIC ([12]; agar-dilution, Streptococcus pyogenes C203, read-out: MIC): 32 µg/mL (≈ 48 µM)
- MIC (Escherichia coli EC14; agar-dilution, Escherichia coli EC14, read-out: MIC): > 128 µg/mL
- MIC ([13]; agar-dilution, Streptococcus pneumoniae Park I, read-out: MIC): 2 µg/mL (≈ 3 µM)
- MIC ([14]; agar-dilution, Staphylococcus aureus V41, Penicillin-resistant strain, read-out: MIC): 16 µg/mL (≈ 24 µM)
- ED50 ([15]; C203, po, read-out: ED50 Oral): > 100 mg/kg
- ED50 ([15]; C203, sc, mice, subcutaneous, mg/kg × 2, doses given 1 and 4 hours postinfection, read-out: ED50 Subcutaneous): > 10 mg/kg
- MIC ([16]; broth-dilution microtiter, Mycoplasma gallisepticum 34159, Resistant strain, read-out: MIC): > 50 µg/mL
- MIC [17]: 12.5 µg/mL (≈ 18.7 µM)
- MIC (Mycoplasma hyorhinis; broth-dilution microtiter, Mycoplasma hyorhinis, read-out: MIC): > 50 µg/mL
- MIC (Mycoplasma gallisepticum; broth-dilution microtiter, Mycoplasma gallisepticum, read-out: MIC): 6.25 µg/mL (≈ 9.37 µM)
- MIC ([18]; broth-dilution microtiter, Pasteurella multocida 17E, Bovine isolate, read-out: MIC): 25 µg/mL (≈ 37.5 µM)
- MIC ([19]; broth-dilution microtiter, Pasteurella hemolytica 23C, read-out: MIC): 25 µg/mL (≈ 37.5 µM)
- MIC [20]: 12.5 µg/mL (≈ 18.7 µM)
- MIC ([21]; broth-dilution microtiter, Pasteurella hemolytica 41D, read-out: MIC): 25 µg/mL (≈ 37.5 µM)
- MIC (Staphylococcus aureus): 12.5 µg/mL (≈ 18.7 µM)
- MIC (Mycoplasma synoviae): 12.5 µg/mL (≈ 18.7 µM)
- MIC ([22]; broth-dilution microtiter, Mycoplasma gallisepticum 41313, Resistant strain, read-out: MIC): 50 µg/mL (≈ 75 µM)
- MIC (Streptococcus sp. 80; broth-dilution microtiter, Streptococcus sp. 80, read-out: MIC): 1.56 µg/mL (≈ 2.34 µM)
- MIC [23]: 12.5 µg/mL (≈ 18.7 µM)
- MIC [24]: 12.5 µg/mL (≈ 18.7 µM)
- MIC ([25]; broth-dilution microtiter, Pasteurella hemolytica 22C, read-out: MIC): 25 µg/mL (≈ 37.5 µM)
